According to patent US4783443A, “Amino acyl cephalosporin derivatives” (The University of Chicago, priority 1986, dated 1988):
Converted amounts (≈) assume the structure as drawn. Where two headings read alike, the source gives them in different places.

Key:
Corynebacterium JKM-4754 = experiment: Minimum inhibitory concentration (MIC); type: cell-based
Excerpt: (§1) The antibacterial effects of compounds of the invention have been assessed by determination of the minimum inhibitory concentration (M.I.C.) value against a variety of Gram-negative and -positive bacteria. The microbial susceptibility data for four compounds, together with those for the antibacterial dipeptide beta-Cl-LAla-beta-Cl-LAla, are given in Table I.
(§2) in uM to facilitate a meaningful comparison of the approximate MICs among
(§3) the tested compounds; an appreciation of the MIC values in ug/mL can be
(§4) obtained by multiplying each value (μM) by 0.55
(§5) ^(j) Resistant to cephalothin (MIC >200 uM);

Escherichia coli Ceph^R = experiment: Minimum inhibitory concentration (MIC); type: cell-based; details: Escherichia coli, read-out: Minimum Inhibitory Concentration
Excerpt: as §1, §2, §3, §4, §5

Corynebacterium JKR-2285 = experiment: Minimum inhibitory concentration (MIC); type: cell-based
Excerpt: as §1, §2, §3, §4, §5

Streptococcus agalactiae = experiment: Minimum inhibitory concentration (MIC); type: cell-based; details: Gram positive
Excerpt: as §1, §2, §3, §4

Serratia marcescens = experiment: Minimum inhibitory concentration (MIC); type: cell-based; details: Gram-negative
Excerpt: as §1, §2, §3, §4

Escherichia coli JSR-O = experiment: Minimum inhibitory concentration (MIC); type: cell-based; details: read-out: Minimum Inhibitory Concentration
Excerpt: as §1, §2, §3, §4

Escherichia coli DB4548 = experiment: Minimum inhibitory concentration (MIC); type: cell-based
Excerpt: as §1, §2, §3, §4

[1] = system: Staphylococcus aureus PSL-14 Pen^R; experiment: Minimum inhibitory concentration (MIC); type: cell-based; details: possesses a betalactamase
Excerpt: as §1, §2, §3, §4

Salmonella typhimurium = experiment: Minimum inhibitory concentration (MIC); type: cell-based; details: Salmonella enterica, Gram-negative
Excerpt: as §1, §2, §3, §4

[2] = system: Staphylococcus aureus PSL-16 Pen^R; experiment: Minimum inhibitory concentration (MIC); type: cell-based; details: possesses a betalactamase
Excerpt: as §1, §2, §3, §4

[3] = system: Staphylococcus aureus H-2690-8^R; experiment: Minimum inhibitory concentration (MIC); type: cell-based; details: possesses a betalactamase
Excerpt: as §1, §2, §3, §4

[4] = system: Staphylococcus aureus T-4624-8 Pen^R; experiment: Minimum inhibitory concentration (MIC); type: cell-based; details: possesses a betalactamase
Excerpt: as §1, §2, §3, §4

[5] = system: Salmonella typhimurium LT 2; experiment: Minimum inhibitory concentration (MIC); type: cell-based; details: Salmonella enterica, Gram-negative
Excerpt: as §1, §2, §3, §4

[6] = system: Staphylococcus aureus PSL-13 Pen^R; experiment: Minimum inhibitory concentration (MIC); type: cell-based; details: possesses a betalactamase
Excerpt: as §1, §2, §3, §4

[7] = system: Hemophilus influenzae 238; experiment: Minimum inhibitory concentration (MIC); type: cell-based; details: Haemophilus influenzae
Excerpt: as §1, §2, §3, §4

Morganella morganii = experiment: Minimum inhibitory concentration (MIC); type: cell-based; details: Gram-negative
Excerpt: as §1, §2, §3, §4

[8] = system: Hemophilus influenzae 487; experiment: Minimum inhibitory concentration (MIC); type: cell-based; details: Haemophilus influenzae, possesses a betalactamase
Excerpt: as §1, §2, §3, §4

[9] = system: Staphylococcus aureus PSL-15 Pen^R; experiment: Minimum inhibitory concentration (MIC); type: cell-based; details: possesses a betalactamase
Excerpt: as §1, §2, §3, §4

Enterobacter areogenes = experiment: Minimum inhibitory concentration (MIC); type: cell-based; details: Gram-negative
Excerpt: as §1, §2, §3, §4

Psuedomonas aeruginosa = experiment: Minimum inhibitory concentration (MIC); type: cell-based; details: Gram-negative
Excerpt: as §1, §2, §3, §4

Enterobacter cloacae = experiment: Minimum inhibitory concentration (MIC); type: cell-based; details: read-out: Minimum Inhibitory Concentration
Excerpt: as §1, §2, §3, §4

Shigella flexneri = experiment: Minimum inhibitory concentration (MIC); type: cell-based; details: Gram-negative
Excerpt: as §1, §2, §3, §4

Escherichia coli CR = experiment: Minimum inhibitory concentration (MIC); type: cell-based; details: read-out: Minimum Inhibitory Concentration
Excerpt: as §1, §2, §3, §4

Streptococcus faecalis = experiment: Minimum inhibitory concentration (MIC); type: cell-based; details: Enterococcus faecalis, read-out: Minimum Inhibitory Concentration
Excerpt: as §1, §2, §3, §4

[10] = system: Hemophilus influenzae 236; experiment: Minimum inhibitory concentration (MIC); type: cell-based; details: Haemophilus influenzae
Excerpt: as §1, §2, §3, §4

Klebsiella pneumoniae = experiment: Minimum inhibitory concentration (MIC); type: cell-based; details: Gram-negative
Excerpt: as §1, §2, §3, §4

[11] = system: Escherichia coli JSR-O pBR322; experiment: Minimum inhibitory concentration (MIC); type: cell-based; details: read-out: Minimum Inhibitory Concentration
Excerpt: as §1, §2, §3, §4
^(i) Contains the plasmid gene encoding the TEM betalactamase.

[12] = target: E. coli TEM beta-lactamase (Escherichia coli, UniProt P62593); experiment: Kinetics of enzymatic turnover by E. coli TEM beta-lactamase; type: biochemical
Sequence of E. coli TEM beta-lactamase (P62593 24-286 limits assumed): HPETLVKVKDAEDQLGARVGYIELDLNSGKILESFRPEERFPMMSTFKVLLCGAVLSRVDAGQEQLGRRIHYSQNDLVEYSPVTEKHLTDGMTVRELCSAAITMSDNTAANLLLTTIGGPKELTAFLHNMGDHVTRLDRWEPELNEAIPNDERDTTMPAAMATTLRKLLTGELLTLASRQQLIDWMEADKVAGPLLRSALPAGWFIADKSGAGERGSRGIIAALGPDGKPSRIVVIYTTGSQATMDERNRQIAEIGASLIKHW
Protocol: Escherichi coli TEM beta-lactamase was purchased from Applied Microbiology and Research, Porton Down, U.K. L-Alanyl-L-alanine was purchase from Sigma; N-BOC-LAla-LAla and N-BOC-beta-Cl-LAla-beta-Cl-LAla were prepared as described previously. Cheung et al supra. All other reagents were of the best grade commercially available.
Kinetic Constants for the Reactions of E. coli TEM beta-Lactamase with Cephalothin and the Cephalosporin Peptide Esters 7 and 17.

[13] = system: Escherichia coli JSR-O Cl-Pep^R; experiment: Minimum inhibitory concentration (MIC); type: cell-based; details: Escherichia coli, read-out: Minimum Inhibitory Concentration
Excerpt: as §1, §2, §3, §4
^(g) This ia an E. coli JSRO strain selected for resistance to the
A comparison of the data for E. coli strains JSR-O and JSR-O Cl-Pep^R is of special interest. E. coli Cl-Pep^R is an E. coli JSR-O mutant which was selected for resistance to the dipeptide (f). […] Note that the MIC values for (d) and (e) against E. coli Cl-Pep^R (100 and 50 μM, respectively) are quite similar.

[14] = system: Staphylococcus epidermidis MO1554(P^S M^S); experiment: Minimum inhibitory concentration (MIC); type: cell-based; details: Staphylococcus epidermidis MO1554 (penicillin- and methicillin-sensitive, P^S M^S)
Excerpt: as §1, §2, §3, §4
(§6) ^(k) P and M refer to penicillin and methicillin, respectively.

[15] = system: Staphylococcus epidermidis 1239(P^R M^R); experiment: Minimum inhibitory concentration (MIC); type: cell-based
Excerpt: as §1, §2, §3, §4, §6

[16] = system: Staphylococcus epidermidis (P^R M^R); experiment: Minimum inhibitory concentration (MIC); type: cell-based; details: no strain number
Excerpt: as §1, §2, §3, §4, §6

[17] = system: Gram-negative and -positive bacteria; experiment: Antibacterial activity, general trends of the MIC panel of Table I; type: cell-based; details: for sensitivity observed: H. influenzae 487, all of the S. aureus strains
Excerpt: as §1

[18] = JKM4754, Corynebacterium JKM-4754, resistant to cephalothin, read-out: Minimum Inhibitory Concentration
[19] = JKR2285, Corynebacterium JKR-2285, resistant to cephalothin, read-out: Minimum Inhibitory Concentration
[20] = E. cloacae, all of the susceptible E. coli strains

Row | SMILES | MIC (Escherichia coli Ceph^R) | MIC (Streptococcus agalactiae) | MIC (Serratia marcescens) | MIC (Escherichia coli DB4548) | MIC [1] | MIC (Salmonella typhimurium) | MIC [2] | MIC [3] | MIC [4] | MIC [5] | MIC [6] | MIC [7] | MIC (Morganella morganii) | MIC [8] | MIC [9] | MIC (Enterobacter areogenes) | MIC (Psuedomonas aeruginosa) | MIC (Shigella flexneri) | MIC [10] | MIC (Klebsiella pneumoniae) | further results
1 | CC(=O)OCC1=C(C(=O)O)N2C(=O)[C@@H](NC(=O)Cc3cccs3)[C@H]2SC1 [cephalothin, reference compound] | > 200 µM | – | – | – | – | – | – | – | – | – | – | – | – | – | – | – | – | – | – | – | MIC (Corynebacterium JKM-4754; Corynebacterium, JKM4754, read-out: Minimum Inhibitory Concentration): > 200 µM; MIC (Corynebacterium JKR-2285; Corynebacterium, JKR2285, read-out: Minimum Inhibitory Concentration): > 200 µM
2 | N[C@@H](CCl)C(=O)N[C@@H](CCl)C(=O)OCC1=C(C(=O)O)N2C(=O)[C@@H](NC(=O)Cc3cccs3)[C@H]2SC1 [(e), 7-beta-(2-thienylacetamido)-3-(beta-chloro-L-alanyl-beta-chloro-L-alanyloxymethyl)-3-cephem-4-carboxylate] | 12.5 µM (≈ 7.07 µg/mL) | ≤ 0.78 µM | > 200 µM | 6.25 µM (≈ 3.53 µg/mL) | 1.56 µM (≈ 0.882 µg/mL) | 50 µM (≈ 28.3 µg/mL) | 1.56 µM (≈ 0.882 µg/mL) | ≤ 0.78 µM | ≤ 0.78 µM | 25 µM (≈ 14.1 µg/mL) | ≤ 0.78 µM | ≤ 0.78 µM | 50 µM (≈ 28.3 µg/mL) | 3.12 µM (≈ 1.76 µg/mL) | 1.56 µM (≈ 0.882 µg/mL) | 200 µM (≈ 113 µg/mL) | > 200 µM | 50 µM (≈ 28.3 µg/mL) | 25 µM (≈ 14.1 µg/mL) | > 200 µM | MIC (Escherichia coli JSR-O; Escherichia coli): 12.5 µM (≈ 7.07 µg/mL); MIC (Enterobacter cloacae): 12.5 µM (≈ 7.07 µg/mL); MIC (Escherichia coli CR; Escherichia coli): 12.5 µM (≈ 7.07 µg/mL); MIC (Streptococcus faecalis): 12.5 µM (≈ 7.07 µg/mL); MIC [11]: 6.25 µM (≈ 3.53 µg/mL); Vmax compared with cephalothin [12]: substantially greater than that obtained for cephalothin; substrate for the lactamase [12]: found to be substrates for the E. coli TEM beta-lactamase; binding to the lactamase (KM approximating KS) ([12]; effect of the C10-dipeptidyl substituent): do not compromise the binding of the cephalosporin nucleus to the lactamase; MIC [13]: 50 µM (≈ 28.3 µg/mL); MIC (Corynebacterium JKM-4754; [18]): 3.12 µM (≈ 1.76 µg/mL); MIC (Corynebacterium JKR-2285; [19]): 3.12 µM (≈ 1.76 µg/mL); MIC [14]: ≤ 0.78 µM; MIC [15]: ≤ 0.78 µM; MIC [16]: ≤ 0.78 µM; detectable activity among the cephalosporins ([17]; E. cloacae, all of the susceptible E. coli strains, Corynebacterium strains, S. faecalis): the only cephalosporin with detectable activity; sensitivity observed [17, 20]: sensitivity was observed; insensitivity / resistance ([17]; P. aeruginosa, S. marcescens and K. pneumoniae): resistant; sensitivity ([17]; S. aureus strains, Corynebacterium JK strains, S. faecalis, H. influenzae 487, E. coli JSR-O and E. cloacae): sensitive; antimicrobial potency compared with the other cephalosporins ([17]; Table I, all strains): by-and-large a more potent antimicrobial agent than the other three cephalosporins (b), (c) and (d); antibiotic potency of (e) versus amino acid ester (c) ([17]; strains sensitive to both (c) and (e)): invariably more potent an antibiotic than is the amino acid ester (c)
3 | N[C@@H](CCl)C(=O)OCC1=C(C(=O)O)N2C(=O)[C@@H](NC(=O)Cc3cccs3)[C@H]2SC1 [(c), 7-beta-(2-thienylacetamido)-3(beta-chloro-L-alanyloxymethyl)-3-cephem-4-carboxylic acid] | > 200 µM | ≤ 0.78 µM | > 200 µM | 50 µM (≈ 23 µg/mL) | 25 µM (≈ 11.5 µg/mL) | 100 µM (≈ 46 µg/mL) | 255 µM (≈ 117 µg/mL) | 6.25 µM (≈ 2.87 µg/mL) | 6.25 µM (≈ 2.87 µg/mL) | 25 µM (≈ 11.5 µg/mL) | 25 µM (≈ 11.5 µg/mL) | ≤ 0.78 µM | 100 µM (≈ 46 µg/mL) | 25 µM (≈ 11.5 µg/mL) | 12.5 µM (≈ 5.75 µg/mL) | > 200 µM | > 200 µM | 100 µM (≈ 46 µg/mL) | 25 µM (≈ 11.5 µg/mL) | > 200 µM | MIC (Escherichia coli JSR-O; Escherichia coli JSR-O, parental strain): 100 µM (≈ 46 µg/mL); MIC (Enterobacter cloacae; Gram-negative): 100 µM (≈ 46 µg/mL); MIC (Escherichia coli CR; Escherichia coli CR): 50 µM (≈ 23 µg/mL); MIC (Streptococcus faecalis; Streptococcus faecalis, Gram positive): 200 µM (≈ 92 µg/mL); MIC [13]: > 200 µM; MIC (Corynebacterium JKM-4754; [18]): > 200 µM; MIC (Corynebacterium JKR-2285; [19]): > 200 µM; MIC [14]: ≤ 0.78 µM; MIC [15]: ≤ 0.78 µM; MIC [16]: ≤ 0.78 µM; sensitivity observed [17, 20]: sensitivity was observed
